Assay [1] deals with T1, ALK2 (Mus musculus, UniProt P37172).
T1 construct: The C2C12 cell line was selected for the measurement of ALK2 activity using BMP6 as the agonist; host or cells: C2C12
T1 sequence (P37172 21-509): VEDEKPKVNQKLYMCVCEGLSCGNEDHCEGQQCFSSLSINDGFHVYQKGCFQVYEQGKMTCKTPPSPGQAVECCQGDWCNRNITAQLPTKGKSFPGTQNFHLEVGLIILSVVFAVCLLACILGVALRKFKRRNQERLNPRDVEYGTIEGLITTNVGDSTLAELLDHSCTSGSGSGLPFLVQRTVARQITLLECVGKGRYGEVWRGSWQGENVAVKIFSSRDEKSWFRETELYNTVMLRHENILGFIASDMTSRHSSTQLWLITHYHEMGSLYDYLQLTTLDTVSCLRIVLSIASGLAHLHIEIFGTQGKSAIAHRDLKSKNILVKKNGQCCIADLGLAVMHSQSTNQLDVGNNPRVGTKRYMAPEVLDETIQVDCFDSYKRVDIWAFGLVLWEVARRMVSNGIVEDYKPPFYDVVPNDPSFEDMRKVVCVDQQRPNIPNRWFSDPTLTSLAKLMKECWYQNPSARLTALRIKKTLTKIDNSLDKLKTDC
Kind of assay: HTRF pSMAD1 cell-based ALK2 assay (C2C12 cells, BMP6 as agonist). The method, then:
2. HTRF Cell-Based ALK1 and ALK2 Assays in 384-Well Plate Format We have developed a cell based ALK1 kinase assay and a cell-based ALK2 assay. The BAOEC cell line was employed for the measurement of ALK1 activity using BMP9 as the agonist. The C2C12 cell line was selected for the measurement of ALK2 activity using BMP6 as the agonist. The kinase specificity was defined by the specific cell line and agonist. The kinase activity was determined by the status of SMD 1/5/8 phosphorylation stimulated by the agonist.
HyClone Fetal Bovine Serum was obtained from GE healthcare life sciences (Logan, Utah). BMP6 and BMP9 were purchased from R&D System. […] The compound plates and the white solid MB assay plates were purchased from Greiner Bio-one (Monroe, N.C.).
HTRF optimization experiments were performed in 384 well plate format. […] Pre-starved cells were then plated in 384 well plate in the starvation medium (containing in 0.1% FBS). After 4 hours, compounds were added to the assay plate and incubated for 30 minutes. The assay plate was then added with BMP6 for C2C12 cells or BMP9 for BAOEC cells and incubated for 30 minutes.
HTRF assay was performed to measure the status of SMAD 1 phosphorylation after stimulated with the agonist (Table 3). This HTRF phospho SMAD1 cell assay was developed and optimized for the homogenous detection of phospho SMAD 1 levels in cells. […] The plate was incubated at room temperature for overnight.

In a further assay the target is ALK1 (Homo sapiens, UniProt P37023). Put plainly: TR-FRET enzymatic ALK kinase assay, ALK1.
Assay [2] deals with T2, ALK2 (Homo sapiens, UniProt Q04771).
T2 sequence (Q04771 21-509): T1 sequence (P37172 21-509) with V1M, Q10P, I121L, E162D, S310P
Put plainly: TR-FRET enzymatic ALK kinase assay, ALK2. A general note: In TR-FRET formats the signal depends on donor and acceptor labels being close together.
Procedure: (§1) Briefly, the ALKs enzymatic assay was initiated by dispense 2.5 μl enzyme in 1× kinase reaction buffer. The assay plate was then added with compounds followed by incubation at room temperature for 10 minutes. Then 2.5 μl/well substrate was added.

A further assay concerns the target ALK3 (Homo sapiens, UniProt P36894). Put plainly: TR-FRET enzymatic ALK kinase assay, ALK3.
A further assay deals with T3, ALK4 (Homo sapiens, UniProt P36896).
T3 sequence (P36896 24-505): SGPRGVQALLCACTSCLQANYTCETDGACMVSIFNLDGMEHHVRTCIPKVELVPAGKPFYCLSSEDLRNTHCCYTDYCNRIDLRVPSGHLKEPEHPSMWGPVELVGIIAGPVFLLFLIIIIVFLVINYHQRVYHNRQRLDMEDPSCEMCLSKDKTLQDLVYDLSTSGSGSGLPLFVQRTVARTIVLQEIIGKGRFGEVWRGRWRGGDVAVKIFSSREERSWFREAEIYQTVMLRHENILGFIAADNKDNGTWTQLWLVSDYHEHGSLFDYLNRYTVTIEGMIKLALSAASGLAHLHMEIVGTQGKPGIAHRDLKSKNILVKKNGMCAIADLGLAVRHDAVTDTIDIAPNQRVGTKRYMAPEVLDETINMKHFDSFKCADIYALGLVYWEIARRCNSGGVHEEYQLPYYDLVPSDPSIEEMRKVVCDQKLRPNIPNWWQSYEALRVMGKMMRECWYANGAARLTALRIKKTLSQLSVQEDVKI
Kind of assay: TR-FRET enzymatic ALK kinase assay, ALK4.

The target in a further assay is T4, ALK5 (Homo sapiens, UniProt P36897).
T4 sequence (P36897 34-503): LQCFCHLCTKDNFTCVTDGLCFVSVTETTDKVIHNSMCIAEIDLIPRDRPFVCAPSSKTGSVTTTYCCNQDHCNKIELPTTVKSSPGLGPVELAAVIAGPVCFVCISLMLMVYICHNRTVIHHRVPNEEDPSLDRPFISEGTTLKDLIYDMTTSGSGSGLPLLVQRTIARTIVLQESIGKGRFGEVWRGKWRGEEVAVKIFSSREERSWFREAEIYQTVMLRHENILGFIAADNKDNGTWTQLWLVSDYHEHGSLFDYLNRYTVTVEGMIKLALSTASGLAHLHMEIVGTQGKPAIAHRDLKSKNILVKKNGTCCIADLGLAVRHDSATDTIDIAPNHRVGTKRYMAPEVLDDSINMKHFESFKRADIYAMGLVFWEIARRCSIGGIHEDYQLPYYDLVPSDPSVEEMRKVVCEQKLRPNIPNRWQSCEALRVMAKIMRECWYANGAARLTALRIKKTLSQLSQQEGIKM
Kind of assay: TR-FRET enzymatic ALK kinase assay, ALK5.

Another assay has as its target ALK6 (Homo sapiens, UniProt O00238). Put plainly: TR-FRET enzymatic ALK kinase assay, ALK6.
[3] abbreviates: cell-based assay, BMP6, read-out: Cell IC50 BMP6.
Where [4] appears, read: Cell IC50 BMP6, cell-based assay, BMP6.

For eleven compounds, IC50 results are on record in patent US10513521B2, “Compositions and methods for inhibiting BMP” (The Brigham and Women's Hospital, Inc., priority 2014, dated 2019).

The structures appear in SMILES notation. Substitutions are numbered along the chain they refer to. Like-named read-outs stand apart in the source and are kept apart here.

ALK3, sequence (P36894 24-532): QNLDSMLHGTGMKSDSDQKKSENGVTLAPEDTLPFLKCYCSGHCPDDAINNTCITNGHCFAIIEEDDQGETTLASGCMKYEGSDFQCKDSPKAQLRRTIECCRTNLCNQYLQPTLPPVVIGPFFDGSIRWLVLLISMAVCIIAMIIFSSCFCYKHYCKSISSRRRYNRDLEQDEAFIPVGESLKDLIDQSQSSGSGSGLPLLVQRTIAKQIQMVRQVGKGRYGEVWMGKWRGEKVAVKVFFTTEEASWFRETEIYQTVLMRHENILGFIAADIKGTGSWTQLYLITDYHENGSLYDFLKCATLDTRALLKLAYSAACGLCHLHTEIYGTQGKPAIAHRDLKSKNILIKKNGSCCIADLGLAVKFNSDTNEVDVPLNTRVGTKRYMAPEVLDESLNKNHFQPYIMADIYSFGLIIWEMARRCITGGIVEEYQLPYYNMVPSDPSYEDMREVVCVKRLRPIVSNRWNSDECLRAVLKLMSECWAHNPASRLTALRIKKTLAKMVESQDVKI
ALK1, sequence (P37023 22-503): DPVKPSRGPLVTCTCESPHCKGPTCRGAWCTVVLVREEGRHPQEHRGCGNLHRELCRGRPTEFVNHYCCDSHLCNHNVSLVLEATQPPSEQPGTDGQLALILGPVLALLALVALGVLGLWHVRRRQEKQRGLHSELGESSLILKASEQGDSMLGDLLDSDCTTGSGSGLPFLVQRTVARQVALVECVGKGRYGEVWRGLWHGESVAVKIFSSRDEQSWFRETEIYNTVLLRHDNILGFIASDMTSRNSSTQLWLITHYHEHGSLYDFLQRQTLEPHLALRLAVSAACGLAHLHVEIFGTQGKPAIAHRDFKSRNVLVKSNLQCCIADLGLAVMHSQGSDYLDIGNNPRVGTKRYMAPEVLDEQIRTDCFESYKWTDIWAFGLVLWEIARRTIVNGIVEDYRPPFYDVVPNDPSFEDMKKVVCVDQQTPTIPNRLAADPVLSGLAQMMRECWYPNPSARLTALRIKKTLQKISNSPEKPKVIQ
ALK6, sequence (O00238 14-502): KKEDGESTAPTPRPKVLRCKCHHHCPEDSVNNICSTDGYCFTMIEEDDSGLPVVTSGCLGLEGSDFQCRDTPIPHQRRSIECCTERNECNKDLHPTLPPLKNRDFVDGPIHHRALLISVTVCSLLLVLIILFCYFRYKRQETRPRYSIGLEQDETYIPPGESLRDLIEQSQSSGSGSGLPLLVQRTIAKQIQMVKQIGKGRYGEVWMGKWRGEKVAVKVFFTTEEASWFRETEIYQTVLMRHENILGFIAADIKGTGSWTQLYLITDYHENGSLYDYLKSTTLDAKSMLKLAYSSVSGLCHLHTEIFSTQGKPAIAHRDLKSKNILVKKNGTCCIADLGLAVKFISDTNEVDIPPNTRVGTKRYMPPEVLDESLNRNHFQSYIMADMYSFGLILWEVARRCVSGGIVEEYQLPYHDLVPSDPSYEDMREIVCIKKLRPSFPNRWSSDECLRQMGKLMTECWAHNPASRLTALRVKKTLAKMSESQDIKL
Procedure for ALK1: as §1
Procedure for ALK3: as §1
Procedure for ALK4: as §1
Procedure for ALK5: Six ALK kinase enzyme assays were developed for determination of compound activities on ALK1, ALK2, ALK3, ALK4, ALK5 and ALK6.
as §1
Procedure for ALK6: as §1

For `CC(O)c1cccc(-c2cnn3cc(-c4ccc(CN5CCCC5)cc4)cnc23)c1` (centres unmarked) [Compound 165, 1-(3-(6-(4-(pyrrolidin-1-ylmethyl)phenyl)pyrazolo[1,5-a]pyrimidin-3-yl)phenyl)ethanol], the IC50 at ALK2 [1] (HTRF assay, BMP6 as agonist, C2C12 cells, read-out: BMP6 HTRF) worked out at 240 nM; against ALK1, 32 nM; against ALK2 [2], 3 nM; on ALK3, 140 nM; against ALK4, 1300 nM; at ALK5, 5900 nM. The compound also gave an IC50 at ALK6 of 3100 nM.
In the case of `CC(O)c1cccc(-c2cnn3cc(-c4ccc(CN5CCCCC5)cc4)cnc23)c1` (centres unmarked) [Compound 124, 1-(3-(6-(4-(piperidin-1-ylmethyl)phenyl)pyrazolo[1,5-a]pyrimidin-3-yl)phenyl)ethanol], the IC50 on ALK2 [1] (setting [3]) is 5.38 nM; at ALK1, 440 nM; against ALK2 [2], 100 nM; against ALK3, greater than 10000 nM; on ALK4, greater than 10000 nM; on ALK5 it was greater than 10000 nM. This compound also registered an IC50 against ALK6 greater than 10000 nM.
In the case of `C[C@@H]1CNC[C@H](C)N1c1ccc(-c2cnc3c(-c4ccc(S(N)(=O)=O)c(N)c4)cnn3c2)cc1` [Compound 57, 2-amino-4-(6-(4-((2R,6S)-2,6-dimethylpiperazin-1-yl)phenyl)pyrazolo[1,5-a]pyrimidin-3-yl)benzenesulfonamide], the IC50 on ALK2 [1] (setting [3]) was 750 nM; against ALK1, 760 nM; against ALK4 it was greater than 10000 nM; against ALK5, greater than 10000 nM; at ALK6, greater than 10000 nM.
Regarding `CS(=O)(=O)c1cccc(-c2cnn3cc(-c4ccc(OCCn5ccnc5)cc4)cnc23)c1` [Compound 102, 6-(4-(2-(1H-imidazol-1-yl)ethoxy)phenyl)-3-(3-(methylsulfonyl)phenyl)pyrazolo[1,5-a]pyrimidine], the IC50 at ALK2 [1] (setting [3]) worked out at 225 nM.
On to `C[C@@H]1CNC[C@H](C)N1c1ccc(-c2cnc3c(-c4cccc(S(N)(=O)=O)c4)cnn3c2)cc1` [Compound 60, 3-(6-(4-((2R,6S)-2,6-dimethylpiperazin-1-yl)phenyl)pyrazolo[1,5-a]pyrimidin-3-yl)benzenesulfonamide], for which the IC50 on ALK2 [1] (setting [3]) is 609 nM; against ALK1 it was 210 nM; against ALK4, greater than 10000 nM; against ALK5 it was greater than 10000 nM; at ALK6, greater than 10000 nM.
As for `NS(=O)(=O)c1ccc(-c2cnn3cc(-c4ccc(N5CCNCC5)nc4)cnc23)c2ccccc12` [Compound 49, 4-(6-(6-(piperazin-1-yl)pyridin-3-yl)pyrazolo[1,5-a]pyrimidin-3-yl)naphthalene-1-sulfonamide], the IC50 on ALK2 [1] (setting [4]) is 316 nM; on ALK1 it was 1700 nM; at ALK4 it was greater than 10000 nM; against ALK5, greater than 10000 nM; at ALK6, greater than 10000 nM.
Turning to `CC(C)(CN1CCCCC1)Oc1ccc(-c2cnc3c(-c4ccc(S(N)(=O)=O)c5ccccc45)cnn3c2)cc1` [Compound 52, 4-(6-(4-((2-methyl-1-(piperidin-1-yl)propan-2-yl)oxy)phenyl)pyrazolo[1,5-a]pyrimidin-3-yl)naphthalene-1-sulfonamide], the IC50 was 8 nM at ALK2 [1] (setting [4]); 170 nM against ALK1; greater than 10000 nM at ALK4; greater than 10000 nM on ALK5; greater than 10000 nM at ALK6.
For `C[C@@H]1CNC[C@H](C)N1c1ccc(-c2cnc3c(-c4cccc5c(S(=O)(=O)N(C)C)cccc45)cnn3c2)cc1` [Compound 40, 5-(6-(4-((2R,6S)-2,6-dimethylpiperazin-1-yl)phenyl)pyrazolo[1,5-a]pyrimidin-3-yl)-N,N-dimethylnaphthalene-1-sulfonamide], the IC50 against ALK1 was greater than 10000 nM; at ALK2 [2] it was 3200 nM; on ALK3 it was greater than 10000 nM; against ALK4 it was greater than 10000 nM; against ALK5, greater than 10000 nM; at ALK6 it was greater than 10000 nM.
In the case of `CS(=O)(=O)c1cccc(-c2cnn3cc(-c4ccc(OC5(CN6CCCC6)CC5)cc4)cnc23)c1` [Compound 170, 3-(3-(methylsulfonyl)phenyl)-6-(4-(1-(pyrrolidin-1-ylmethyl)cyclopropoxy)phenyl)pyrazolo[1,5-a]pyrimidine], the IC50 against ALK1 is 270 nM; against ALK2 [2], 33 nM; against ALK3 it was 1500 nM; against ALK4, greater than 10000 nM; against ALK5, greater than 10000 nM; at ALK6, 9600 nM.
In the case of `C[C@H](O)c1cccc(-c2cnn3cc(-c4ccc(OCCN5CCCCC5)cc4)cnc23)c1` [Compound 201, (S)-1-(3-(6-(4-(2-(piperidin-1-yl)ethoxy)phenyl)pyrazolo[1,5-a]pyrimidin-3-yl)phenyl)ethanol], the IC50 against ALK1 is 1000 nM; against ALK2 [2] it was 43 nM; on ALK3 it was 1000 nM; on ALK4, greater than 10000 nM; against ALK5, greater than 10000 nM; at ALK6, greater than 10000 nM.
Regarding `C[S+](=O)([O-])c1cccc(-c2cnn3cc(-c4ccc(OC5(CN6CC(F)(F)C6)CC5)cc4)cnc23)c1` [Compound 176, 6-(4-(1-((3,3-difluoroazetidin-1-yl)methyl)cyclopropoxy)phenyl)-3-(3-(methylsulfonyl)phenyl)pyrazolo[1,5-a]pyrimidine], the IC50 was 720 nM against ALK1; 68 nM on ALK2 [2]; 2400 nM against ALK3; greater than 10000 nM against ALK4; greater than 10000 nM against ALK5; greater than 10000 nM on ALK6.
